What is called MIC is the smallest concentration in the dilution series that meets the test's criterion for growth inhibition. The term IC50 denotes the concentration at which inhibition is half-maximal. Lower therefore signals inhibition by little substance.

Our source for the log k, MIC and IC50 values is PMC6270026, “Antibacterial and Herbicidal Activity of Ring-Substituted 2-Hydroxynaphthalene-1-carboxanilides” (Molecules, 2013).

Values after ≈ are worked out from the molar mass of the structure shown.

Series [1] can be described thus: Lipophilicity determination by RP-HPLC (capacity factor log k). It counts as physicochemical. The note with it: isocratic, MeOH 60%/H2O 40%, C18. Here is the method: A HPLC system Agilent 1200 equipped with DAD detector (Agilent, Santa Clara, CA, USA) was used. A chromatographic column Symmetry® C18 5 μm, 4.6 × 250 mm, Part No. WAT054275, (Waters Corp., Milford, MA, USA) was used. The HPLC separation process was monitored and evaluated by EZChrom Elite software ver. 3.3.2 (Agilent). Isocratic elution by a mixture of MeOH p.a. (60%) and H2O-HPLC Mili-Q grade (40%) as a mobile phase was used. The total flow of the column was 1.0 mL/min, injection 20 μL, column temperature 40 °C and sample temperature 10 °C. The detection wavelength 210 nm was chosen. The KI methanolic solution was used for the dead time (tD) determination. Retention times (tR) were measured in minutes. The capacity factors k were calculated according to formula k = (tR − tD)/tD, where tR is the retention time of the solute, whereas tD denotes the dead time obtained using an unretained analyte. Log k, calculated from the capacity factor k, is used as the lipophilicity index converted to log P scale.

The test system of the next series is M. kansasii DSM 44162. Kind of series: In vitro antimycobacterial evaluation (broth dilution MIC). It counts as cell-based. The conditions noted are these: Mycobacterium kansasii, DSM44162, 168 h; M. kansasii DSM 44162, 7 days, 37 °C.
For series [2], the system named is methicillin-resistant Staphylococcus aureus SA 3202. Kind of series: In vitro antibacterial susceptibility testing (broth dilution MIC). It counts as cell-based. The note with it: MRSA, clinical isolate SA 3202, 24 h, 37 °C, read-out: MIC MRSA 3202. The protocol:
(§1) The synthesized compounds were evaluated for in vitro antibacterial activity against representatives of multidrug-resistant bacteria, clinical isolates of methicillin-resistant Staphylococcus aureus (MRSA) 63718, SA 630 and SA 3202 that were obtained from the National Institute of Public Health, Prague, Czech Republic. Staphylococcus aureus ATCC 29213 was used as a reference and quality control strain. Ampicillin (Sigma-Aldrich) was used as the standard. Prior to testing, each strain was passaged onto nutrient agar (Oxoid, Hampshire, UK) with 5% of bovine blood, and bacterial inocula were prepared by suspending a small portion of bacterial colony in sterile phosphate buffered saline (pH 7.2–7.3). The cell density was adjusted to 0.5 McFarland units using a densitometer (Densi-La-Meter, LIAP, Riga, Latvia). The final inoculum was made by 1:20 dilution of the suspension with the Mueller-Hinton broth (MH broth). […] The final concentrations of the evaluated compounds ranging from 256 μg/mL to 0.008 μg/mL. The broth dilution micro-method modified according to NCCLS guidelines in MH broth was used to determine the minimum inhibitory concentration (MIC). Drug-free controls, sterility controls and controls consisted of MH broth and DMSO alone were included. The determination of results was performed visually after 24 h of static incubation in the darkness at 37 °C in an aerobic atmosphere. The MICs were defined as the lowest concentration of the compound at which no visible bacterial growth was observed.
(In general: Dilution methods test growth across graded concentrations, often in twofold steps.)

Series [3] concerns Staphylococcus aureus ATCC 29213. The series is described as above. The conditions noted are these: ATCC29213; Staphylococcus aureus ATCC 29213, 24 h, 37 °C. It counts as cell-based. Here is the method:
as §1

Series [4] relates to methicillin-resistant Staphylococcus aureus SA 630. Described as above. It counts as cell-based. The note with it: MRSA, clinical isolate SA 630, 24 h, 37 °C. The protocol:
as §1

The test system of series [5] is methicillin-resistant Staphylococcus aureus (MRSA) 63718. The series is described as above. It counts as cell-based. The note with it: clinical isolate MRSA 63718, 24 h, 37 °C. The protocol:
as §1

Series [6] concerns Mycobacterium marinum CAMP 5644. Nature of the series: In vitro antimycobacterial evaluation (broth dilution MIC). It counts as cell-based. The note with it: Mycobacterium marinum, CAMP5644, 504 h, M. marinum CAMP 5644, 21 days, 28 °C.
For series [7], the system named is Mycobacterium avium subsp. paratuberculosis (CIT03). Kind of series: In vitro antimycobacterial evaluation (alamarBlue MIC). The conditions noted are these: 264 h, M. avium paratuberculosis CIT03, 11 days, 37 °C. It counts as cell-based. Here is the method: A well characterised clinical isolate of Mycobacterium avium subsp. paratuberculosis (CIT03) was grown in Middlebrook broth (MB), supplemented with Oleic-Albumin-Dextrose-Catalase supplement (OADC, Becton, Dickinson & Comp., Franklin Lakes, NJ, USA) and mycobactin J (2 µg/mL). Identification of this isolate was performed using biochemical and molecular protocols. At log phase growth, a culture sample (10 mL) was centrifuged at 15,000 rpm/20 min using a bench top centrifuge (Model CR 4-12, Jouan Inc., Winchester, VA, USA). Following removal of the supernatant, the pellet was washed in fresh Middlebrook 7H9GC broth and re-suspended in fresh supplemented MB (10 mL). The turbidity was adjusted to match McFarland standard No. 1 (3 × 10^8 cfu) with MB broth. A further 1:20 dilution of the culture was then performed in MB broth. The antimicrobial susceptibility of the mycobacterial species was investigated in a 96-well plate format. In these experiments, sterile deionised water (300 µL) was added to all outer-perimeter wells of the plates to minimize evaporation of the medium in the test wells during incubation. Each evaluated compound (100 µL) was incubated with each of the mycobacterial species (100 µL). Dilutions of each compound were prepared in duplicate. For all synthesized compounds, final concentrations ranged from 1,000 µg/mL to 8 µg/mL. All compounds were prepared in DMSO and subsequent dilutions were made in supplemented MB. The plates were sealed with parafilm and incubated at 37 °C, for 11 days in the case of M. avium paratuberculosis. Following incubation, a 10% addition of alamarBlue (AbD Serotec, Kidlington, UK) was mixed into each well and readings at 570 nm and 600 nm were taken, initially for background subtraction and subsequently after 24 h re-incubation. The background subtraction is necessary for strongly coloured compounds, where the colour may interfere with the interpretation of any colour change. For non-interfering compounds, a blue colour in the well was interpreted as an absence of growth and a pink colour was scored as growth. The minimum inhibitory concentrations (MICs) were initially defined as the lowest concentration which prevented a visual colour change from blue to pink.
The MICs were defined as the lowest concentration of the compound at which no visible bacterial growth was observed. The MIC value is routinely and widely used in bacterial assays and is a standard detection limit according to the Clinical and Laboratory Standards Institute (CLSI). Isoniazid (Sigma-Aldrich) was used as reference antimycobacterial drug.
Background: Resazurin is reduced to fluorescent resorufin, in cell work by metabolically active cells.

The subject of another series is M. smegmatis ATCC 700084. Kind of series: In vitro antimycobacterial evaluation (broth dilution MIC). It counts as cell-based, Mycobacterium smegmatis. The note with it: Mycolicibacterium smegmatis, ATCC700084, 72 h; M. smegmatis ATCC 700084, 3 days, 37 °C.
Series [8] deals with photosynthetic electron transport (PET) in spinach chloroplasts. Nature of the series: Inhibition of photosynthetic electron transport (PET) in spinach chloroplasts. It counts as biochemical, Spinacia oleracea L. The note with it: DCPIP photoreduction. The protocol:
Chloroplasts were prepared from spinach (Spinacia oleracea L.) according to Masarovicova and Kralova. The inhibition of photosynthetic electron transport (PET) in spinach chloroplasts was determined spectrophotometrically (Genesys 6, Thermo Electron Scientific Instruments, Madison, WI, USA), using an artificial electron acceptor 2,6-dichlorophenol-indophenol (DCPIP) according to Kralova et al., and the rate of photosynthetic electron transport was monitored as a photoreduction of DCPIP. The measurements were carried out in phosphate buffer (0.02 mol/L, pH 7.2) containing sucrose (0.4 mol/L), MgCl2 (0.005 mol/L) and NaCl (0.015 mol/L). The chlorophyll content was 30 mg/L in these experiments and the samples were irradiated (~100 W/m^2 with 10 cm distance) with a halogen lamp (250 W) using a 4 cm water filter to prevent warming of the samples (suspension temperature 22 °C). The studied compounds were dissolved in DMSO due to their limited water solubility. […] The inhibitory efficiency of the studied compounds was expressed by IC50 values, i.e., by molar concentration of the compounds causing 50% decrease in the oxygen evolution rate relative to the untreated control.

With `O=C(Nc1ccc(F)cc1)c1c(O)ccc2ccccc12` [Compound 4c, N-(4-fluorophenyl)-2-hydroxynaphthalene-1-carboxamide], the log k in series [1] was 0.5568. The MIC (in the series on M. kansasii DSM 44162; in series [2]; in series [3]; in series [4]; in [5]; in series [6]) was greater than 910 µM throughout. In addition, the MIC is greater than 889 µM in series [7] and greater than 910 µM against M. smegmatis ATCC 700084. In addition, it took 313 µM to reach half-maximal inhibition in series [8] (IC50).

The molecule `O=C(Nc1cccc(Cl)c1)c1c(O)ccc2ccccc12` [Compound 5b, N-(3-chlorophenyl)-2-hydroxynaphthalene-1-carboxamide] displayed a log k in [1] of 0.7904. Also, the MIC is 53.7 µM (≈ 16 µg/mL) against M. kansasii DSM 44162; 107 µM (≈ 31.9 µg/mL) in series [2]; greater than 860 µM in [3]; greater than 860 µM in series [4]; greater than 860 µM in series [5]; greater than 860 µM in [6]. The figures for the MIC (in series [7]; with M. smegmatis ATCC 700084) were 840 µM (≈ 250 µg/mL) and 215 µM (≈ 64 µg/mL), respectively. In series [8], this molecule came in with an IC50 of 79.7 µM.

Take `O=C(Nc1ccc(Cl)cc1)c1c(O)ccc2ccccc12` [Compound 5c, N-(4-chlorophenyl)-2-hydroxynaphthalene-1-carboxamide]: the log k in series [1] is 0.7908. In addition, the MIC was 53.7 µM (≈ 16 µg/mL) with M. kansasii DSM 44162; 107 µM (≈ 31.9 µg/mL) in [2]; 215 µM (≈ 64 µg/mL) in series [3]; greater than 860 µM in [4]; greater than 860 µM in series [5]; greater than 860 µM in [6]. The MIC was 420 µM (≈ 125 µg/mL) in [7] and greater than 860 µM against M. smegmatis ATCC 700084. The same molecule yielded an IC50 in [8] of 59.2 µM.

In [1], `O=C(Nc1ccccc1Br)c1c(O)ccc2ccccc12` [Compound 6a, N-(2-bromophenyl)-2-hydroxynaphthalene-1-carboxamide] had a log k of 0.9509. In addition, the MIC in the series on M. kansasii DSM 44162 is 93.5 µM (≈ 32 µg/mL); in series [2] it was greater than 748 µM; in series [3], greater than 748 µM; in [4], greater than 748 µM; in series [5], greater than 748 µM; in series [6], greater than 748 µM. Moreover, the MIC in series [7] was 731 µM (≈ 250 µg/mL); against M. smegmatis ATCC 700084, greater than 748 µM. Further, in [8], the IC50 worked out at 52.2 µM.

Turning to `O=C(Nc1cccc(Br)c1)c1c(O)ccc2ccccc12` [Compound 6b, N-(3-bromophenyl)-2-hydroxynaphthalene-1-carboxamide], the log k in series [1] was 0.8595. Further, the MIC in the series on M. kansasii DSM 44162 was 46.7 µM (≈ 16 µg/mL); in [2], greater than 748 µM; in series [3] it was greater than 748 µM; in series [4] it was greater than 748 µM; in series [5] it was greater than 748 µM; in series [6], greater than 748 µM. Further, the MIC in series [7] is 731 µM (≈ 250 µg/mL); against M. smegmatis ATCC 700084, greater than 748 µM. The IC50 in series [8] was 61.1 µM.

The molecule `O=C(Nc1ccc(Br)cc1)c1c(O)ccc2ccccc12` [Compound 6c, N-(4-bromophenyl)-2-hydroxynaphthalene-1-carboxamide] yielded a log k in [1] of 0.8790. The MIC stood at 93.5 µM (≈ 32 µg/mL) against M. kansasii DSM 44162; 94.1 µM (≈ 32.2 µg/mL) in series [2]; 47 µM (≈ 16.1 µg/mL) in series [3]; 47 µM (≈ 16.1 µg/mL) in series [4]; 187 µM (≈ 64 µg/mL) in series [5]; 187 µM (≈ 64 µg/mL) in series [6]. The values for the MIC (in series [7]; in the series with M. smegmatis ATCC 700084) were 175 µM (≈ 59.9 µg/mL) and 187 µM (≈ 64 µg/mL), respectively. The IC50 in [8] turned out to be 102 µM.

In the case of `O=C(Nc1ccc(C(F)(F)F)cc1)c1c(O)ccc2ccccc12` [Compound 7c, 2-Hydroxy-N-(4-trifluoromethylphenyl)naphthalene-1-carboxamide], the log k in [1] is listed as 0.9994. In addition, the MIC was 23.3 µM (≈ 7.72 µg/mL) in the series on M. kansasii DSM 44162; 47 µM (≈ 15.6 µg/mL) in series [2]; greater than 748 µM in series [3]; 94 µM (≈ 31.1 µg/mL) in series [4]; 94 µM (≈ 31.1 µg/mL) in series [5]; greater than 748 µM in [6]. Besides, the minimal inhibitory concentration (MIC) was 731 µM (≈ 242 µg/mL) in series [7] and greater than 748 µM in the series on M. smegmatis ATCC 700084. The IC50 in [8] is 29 µM.
